Tests used:
[1] = system: SKBR3 breast tumor cells; experiment: Uptake assay in SKBR3 breast tumor cells; assay type: cell-based, human; conditions: average of two assays, variance 5-20%
Experimental: (§1) The cell uptake assay protocol was developed by Delmon-Moingeon et al.^10 Breast tumor cells (SKBR3) were incubated in media over a 2 hr time course with each test sample. This line has been identified as having high membrane potential and has been characterized for uptake of ^99m Tc-sestamibi. […] The first time point (10 min.) was used to compare compounds, as this was felt to represent the non-equilibrium kinetics of delivery experienced in vivo.

[2] = system: A549 lung tumor cells; experiment: Uptake assay in A549 lung tumor cells; assay type: cell-based; conditions: average of two assays, variance 5-20%
Experimental: [Worded in the source for another cell line; this cell line is reported under the same test.] as §1

[3] = system: HBL100 nontransformed breast cells; experiment: Uptake assay in HBL100 nontransformed breast cells; assay type: cell-based; conditions: average of two assays, variance 5-20%
[4] = system: SKBR3 human breast tumor cells vs CV-1 normal epithelial cells; experiment: Washout assay: retention in an adherent cell assay, ratio of tumor (SKBR3)/normal (CV-1); assay type: cell-based; conditions: for Retention, ratio of tumor/normal 99mTc activity: SKBR3/CV-1, mean of 4 slips per cell line
Experimental: (§2) Two cell lines are grown on cover slips: SKBR3 human breast tumor with known high membrane potential, and an epithelial cell line (CV1) of low membrane potential. Breast tumor cells (SKBR3) and normal epithelial cells (CV-1) are grown on cover slips (5×10^5 cells) and incubated for 60 min with 100 μCi of ^99m Tc-isonitrile. The slips are then incubated for 120 min in nonisotopic medium with repeated rinses. ^99m Tc activity remaining on the slips is determined at 0, 0.5, 1, 1.5, and 2 hr. Results are expressed as the ratio of tumor/normal ^99m Tc activity at each of the times. Values are the mean of 4 slips per cell line.
The washout assay characterizes the retention of compounds having gained access to the cell. A significant feature of this assay is that each cover slip was given a cell count at the end of the assay, and results were corrected for actual cell density. Because of high nonspecific binding to the coverslips, early times during washout are not meaningful, and so actual uptake and pharmacokinetics during the first phase of washout are not available. The results, however, are useful in predicting prolonged retention of compounds after blood levels have cleared.

[5] = system: breast tumors in c-neu oncomice; experiment: Pairwise imaging in the c-neu oncomouse; assay type: in vivo, mouse; conditions: for Mean of Tumor Ratio Test/99mTc-sestamibi +/- Std Dev: paired imaging, c-neu oncomice, 6 animals (14 tumors), ** p < .01
From the text: The pairwise model was designed to directly compare the images of ^99m Tc-TBI with ^99m Tc-sestamibi. The same mouse was imaged at two separate times within 96 hr of each other with the test compound at one time and ^99m Tc-sestamibi at the other. The order of test and reference compound injected were random, but each study included at least an n=2 in each direction.
Female c-neu oncomice (18-30 g) and FVB wildtype mice were used in the pairwise studies. Mice with breast tumors between 1-15 mm were selected for imaging. Animals were anesthetized with sodium pentobarbital (IP) at a dose of 80 mg/kg. Tumors were measured with dial calipers and recorded on mouse templates. The tail was immersed in hot water for 1-2 min, wiped with alcohol, and injected via the tail vein (28 gauge insulin needle) with […] (0.15mL) of prepared ^99m Tc-TBI. The mouse was secured in a supine position on the dissection board with limbs and head extended to expose the chest area for optimal imaging of breast tumors. All image acquisitions were performed using a Picker Digital Dyna Gamma Camera, a Siemens MicroDelta terminal/MAXDELTA system, and a custom-made 1 mm pinhole collimator mounted on the gamma camera. The general static acquisition protocol was employed, using an acquisition matrix of 256×256 pixels, in word mode. The mouse was placed at a distance of 3 cm from the surface of the dissection board to the bottom of the collimator. The anterior view of the upper torso of the animal was acquired at each time point. Consecutive images were collected starting at 10 min post injection. Six 10 min images were collected at the 3 cm distance and one 10 min image was collected of the whole body at 15 cm to determine any tail vein activity. […] Total activity injected was determined by measuring the syringe before and after injection, then corrected for decay back to the time of injection. The pairwise images within each study were normalized for injected dose and regions of interest were taken over breast tumors and the heart. The mean ratio of ^99m Tc-TBI to ^99m Tc-sestamibi in the tumor was reported.

[6] = system: SKBR3 tumor cells; experiment: Tumor cell washout kinetics (t1/2); assay type: cell-based, human; conditions: washout from SKBR3 cells; for 1/2 life SKBR3 Tumor Cells: second phase of biphasic kinetics
Experimental: as §2
The half lives were also calculated for the washout of ^99m Tc-isonitriles from SKBR3 cells.

[7] = system: breast adenocarcinomas in c-neu oncomice; experiment: Dual label whole body autoradiography and histochemistry; assay type: in vivo, mouse; conditions: c-neu OncoMouse, whole body autoradiography
Experimental: The test compound was given i.v. to a transgenic c-neu mouse (OncoMouse™). This mouse has been genetically constructed to spontaneously produce breast tumors. The tumors develop with the same cribriform pattern as observed in human tumors and have a similar pattern of blood supply.
Female c-neu oncomice bearing breast adenocarcinomas >0.5 cm in diameter were injected i.v. with 1-3 mCi of ^99m Tc-TBI and 5 μCi of C-14 2-deoxy-D-glucose. The mice were sacrificed at 30 min post injection by CO2 inhalation. The carcass was embedded and frozen in embedding medium and 20μ frozen sections were obtained in a cryotome. Autoradiograms of sections and standards were obtained on Kodak SB5 X-ray film. Adjacent sections (5μ) were obtained and stained with hemotoxylin and eosin (H&E). Images were digitized on a LOATS video-based computerized densitometer, and regions of intersect were obtained (% ID/g).

[8] = system: breast tumors; conditions: J. Nucl. Med. 1993, 34:149P; cited from earlier work
[9] = system: heart; conditions: Example 5 of Bergstein et al, U.S. Pat. No. 4,988,827; compared with ether isonitriles; cited from earlier work

| Compound | Uptake (% of total) ([1]; SKBR3, 10 minutes) [%] | Uptake (% of total) ([1]; SKBR3, 20 minutes) [%] | Uptake (% of total) ([1]; SKBR3, 60 minutes) [%] | Uptake (% of total) ([2]; A549, 10 minutes) [%] | Uptake (% of total) ([2]; A549, 20 minutes) [%] | Uptake (% of total) ([2]; A549, 60 minutes) [%] | Uptake (% of total) ([3]; HBL100, 10 minutes) [%] | Uptake (% of total) ([3]; HBL100, 20 minutes) [%] | Uptake (% of total) ([3]; HBL100, 60 minutes) [%] | Retention, ratio of tumor/normal 99mTc activity ([4]; washout time 0 hr) | Retention, ratio of tumor/normal 99mTc activity ([4]; washout time 0.5 hr) | Retention, ratio of tumor/normal 99mTc activity ([4]; washout time 1 hr) | Retention, ratio of tumor/normal 99mTc activity ([4]; washout time 1.5 hr) | Retention, ratio of tumor/normal 99mTc activity ([4]; washout time 2 hr) | Mean of Tumor Ratio Test/99mTc-sestamibi +/- Std Dev [5] | 1/2 life SKBR3 Tumor Cells [6] | also measured |
| --- | --- | --- | --- | --- | --- | --- | --- | --- | --- | --- | --- | --- | --- | --- | --- | --- | --- |
| [C-]#[N+]CC(C)(C)OC.[C-]#[N+]CC(C)(C)OC.[C-]#[N+]CC(C)(C)OC.[C-]#[N+]CC(C)(C)OC.[C-]#[N+]CC(C)(C)OC.[C-]#[N+]CC(C)(C)OC.[Tc] [MIBI, reference compound] | 1.8 | 4.5 | 17.2 | 0.7 | 2.5 | 7.3 | 0.9 | 3.4 | 8.8 | 38 | 36 | 34 | 29 | 26 | 1 | 120.5 | correlation between breast tumor retention and tissue viability [7]: strong correlation; sensitivity for imaging breast tumors [8]: > 90%; specificity for imaging breast tumors [8]: > 70% |
| ^99m Tc-tertiary-butyl isonitrile complex [TBI] | 71.1 | 68.1 | 67 | 49.8 | 45.3 | 43.1 | 61.3 | 62.4 | 64.3 | 12 | 24 | 31 | 35 | 37 | 1.33 +/-0.43 | 656.0 | retention in tumor cells during washout ([4]; tumor cell culture, in words): prolonged retention in tumor cells during washout; tumor uptake and retention in vivo, relative to 99mTc-sestamibi ([5]; in words): significantly increased tumor uptake and retention in vivo; increase in tumor retention/uptake compared with 99mTc-sestamibi ([5]; pairwise imaging, c-neu OncoMouse, p<0.01): 133%; increase in t1/2 (longer retention) compared with 99mTc-sestamibi [6]: 6 fold; heart/liver and heart/lung uptake ratios [9]: low heart/liver and heart/lung uptake ratios |

From patent publication US5961952A, “^99m Tc-tertiary-butyl isonitrile as breast tumor imaging agents” (DuPont Pharmaceuticals Company, priority 1997, dated 1999)
